One assay has as its target T1, FL hMALT1 enzyme (Homo sapiens, UniProt Q9UDY8).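 Further: Cell-free protease assay: enzyme preincubated with compound 30 min at room temperature, then cleavage of fluorogenic Ac-LVSR-AMC substrate (100 µM) tracked by fluorescence (ex 360/em 460 nm).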
T1 sequence (Q9UDY8 1-824): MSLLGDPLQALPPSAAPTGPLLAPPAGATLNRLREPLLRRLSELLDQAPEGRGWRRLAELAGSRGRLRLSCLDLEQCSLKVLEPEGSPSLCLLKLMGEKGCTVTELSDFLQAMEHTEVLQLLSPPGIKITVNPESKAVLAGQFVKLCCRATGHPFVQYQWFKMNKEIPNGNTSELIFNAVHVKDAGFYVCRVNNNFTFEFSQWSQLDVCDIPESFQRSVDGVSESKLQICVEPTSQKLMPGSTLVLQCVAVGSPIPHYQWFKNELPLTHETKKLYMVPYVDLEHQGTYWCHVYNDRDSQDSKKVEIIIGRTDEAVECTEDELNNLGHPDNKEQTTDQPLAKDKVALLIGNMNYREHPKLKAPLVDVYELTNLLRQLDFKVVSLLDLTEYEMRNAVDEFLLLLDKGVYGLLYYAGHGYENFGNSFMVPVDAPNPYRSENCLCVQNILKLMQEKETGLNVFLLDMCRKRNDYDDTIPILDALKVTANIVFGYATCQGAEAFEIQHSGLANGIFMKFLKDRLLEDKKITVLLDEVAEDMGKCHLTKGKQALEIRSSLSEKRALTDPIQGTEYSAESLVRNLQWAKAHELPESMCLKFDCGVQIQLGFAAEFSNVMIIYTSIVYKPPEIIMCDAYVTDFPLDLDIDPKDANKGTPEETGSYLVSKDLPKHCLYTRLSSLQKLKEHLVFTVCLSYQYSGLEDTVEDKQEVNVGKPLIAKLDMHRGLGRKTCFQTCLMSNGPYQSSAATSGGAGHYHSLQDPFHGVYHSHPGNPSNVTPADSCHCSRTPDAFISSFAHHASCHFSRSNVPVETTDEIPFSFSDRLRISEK
Kind of assay: biochemical.

For assay [1], the system named is IL-2 release from stimulated Jurkat cells. Kind of assay: Human IL-2 Release Phenotypic Assay (Assay 3). It is filed as cell-based. The settings on record: Jurkat cells (clone E6-1), 200 ng/mL PMA + 300 ng/mL ionomycin, IL-2 by ELISA. Here is the method: This assay measured the inhibition by MALT1 inhibitors of the IL-2 release from stimulated Jurkat cells, a human immortalized T lymphocyte cell line. IL-2 production from Jurkat cells is regulated by activation of NFκB signalling, which is in turn regulated by MALT1 protease activity.
Jurkat cells (clone E6-1, ATCC) were cultured in RPMI1640 supplemented with 10% (v/v) FBS and 1% (v/v) penicillin/streptomycin (100× liquid stocks). Cells were seeded in 96-well white tissue culture-treated plates (Perkin Elmer) at 50 000 cells/well and incubated overnight at 37° C., 5% CO2. Test compounds in DMSO at half-log dilutions were added to the cells and incubated for 30 mins. Final DMSO concentration was 0.5%. Cells were then stimulated with 200 ng/mL PMA+300 ng/mL ionomycin and incubated for 48 hours. […] IC50 values were calculated using GraphPad Prism using 4-parameter non-linear regression curve fit.
A general note: In an ELISA, binding on a coated surface is turned into a signal by an enzyme label.

pIC50: −log10 of the molar value.

Experimental for FL hMALT1 enzyme: MALT1 protease activity was assessed in vitro by measuring the cleavage of a fluorogenic tetrapeptide substrate.
For a higher sensitivity assay, commercially available FL hMALT1 enzyme (Abcam, 1-10 nM) was incubated with substrate (Ac-LVSR-AMC, 100 μM) in reaction buffer comprising 50 mM HEPES (pH7.0), 25 mM KCl, 0.1% (v/v) CHAPS, 1 mM TCEP and 0.7 M sodium citrate.
Test compounds dissolved in DMSO were dispensed into assay plates (384-well, black, shallow ProxiPlates). 7 μl enzyme solution was added and incubated at room temperature for 30 minutes to allow compound binding to occur. 2 μl substrate solution was then added and the fluorescence (excitation 360 nm, emission 460 nm) read every 15 minutes using a suitable plate reader. Final assay DMSO concentration was 1%. […] IC50 values were calculated using GraphPad Prism using a 4-parameter non-linear regression curve fit.

For the compound `CN1C(=O)CCC1C(=O)N(C)[C@@H](c1ccc(N[C@H]2Cc3ccccc3C2(C)C)cn1)C(F)(F)F` (single isomer, unassigned) [Example 226], the pIC50 (as a rule, −log10 of the IC50, conventionally taken in molar units) was 7.41 at FL hMALT1 enzyme and 6.60 in assay [1] (48 hours).
Regarding `CN(C(=O)CC#N)[C@@H](c1ccc(NC2Cc3ccc(Cl)c(Cl)c3C2)cn1)C(F)(F)F` (single isomer, unassigned) [Example 350], the pIC50 at FL hMALT1 enzyme is 7.21; in assay [1] (Homo sapiens, Jurkat, 48 h), 6.64.
As to `CN(C(=O)C1CCCNC1)[C@@H](c1ccc(NC2Cc3ccccc3C2(C)C)cn1)C(F)(F)F` (single isomer, unassigned) [Example 124], the negative-log IC50 (pIC50) at FL hMALT1 enzyme was 6.72; in assay [1] (48 hours) it was 5.89.
In the case of `CN(C(=O)C1CCS(=O)(=O)CC1)[C@@H](c1ccc(NC2Cc3ccc(Cl)cc3C2)nc1)C(F)(F)F` (single isomer, unassigned) [Example 289], the pIC50 is 7.35 against FL hMALT1 enzyme and 6.52 in assay [1] (Homo sapiens, Jurkat, 48 h).
With `CN(C(=O)C1CCC(=O)NC1)[C@@H](c1ccc(NC2Cc3ccccc3C2(C)C)cn1)C(F)(F)F` (single isomer, unassigned) [Example 107], the negative logarithm of the IC50 (pIC50) against FL hMALT1 enzyme is 7.35; in assay [1] (48 hours), 6.39.
As to `Cc1c(Cl)ccc2c1CC(Nc1ccc([C@H](N(C)C(=O)C3CCS(=O)(=O)CC3)C(F)(F)F)nc1)C2` (single isomer, unassigned) [Example 372], the pIC50 against FL hMALT1 enzyme was 7.72; in assay [1] (Homo sapiens, Jurkat, 48 h) it was 6.89.
On to `CN(C(=O)[C@H]1C[C@@]2(CCN2C)C1)[C@@H](c1ccc(NC2Cc3ccccc3C2(C)C)cn1)C(F)(F)F` (single isomer, unassigned) [Example 156], for which the pIC50 against FL hMALT1 enzyme was 6.77; in assay [1] (48 hours), 5.76.
For `CN(C(=O)C12CC(NS(C)(=O)=O)(C1)C2)[C@@H](c1ccc(N[C@H]2Cc3ccccc3C2(C)C)cn1)C(F)(F)F` [Example 233, N—((S)-1-(5-(((S)-1,1-dimethyl-2,3-dihydro-1H-inden-2-yl)amino)pyridin-2-yl)-2,2,2-trifluoroethyl)-N-methyl-3-(methylsulfonamido)bicyclo[1.1.1]pentane-1-carboxamide], the pIC50 was 7.70 against FL hMALT1 enzyme and 6.77 in assay [1] (Homo sapiens, Jurkat, 48 h).
In the case of `CN1CCC(C(=O)N(C)[C@@H](c2ccc(N[C@H]3Cc4ccccc4C3(C)C)cn2)C(F)(F)F)CC1=O` (single isomer, unassigned) [Example 251], the pIC50 on FL hMALT1 enzyme was 7.49; in assay [1] (48 hours), 6.49.
`CN1CCC(C(=O)N(C)[C@@H](c2ccc(NC3Cc4ccccc4C3(C)C)nc2)C(F)(F)F)CC1` (single isomer, unassigned) [Example 144]: the pIC50 was 6.68 at FL hMALT1 enzyme and 5.58 in assay [1] (Homo sapiens, Jurkat, 48 h).
With `CN(C(=O)C1CC2(CCN2CCO)C1)[C@@H](c1ccc(NC2Cc3ccccc3C2(C)C)cn1)C(F)(F)F` (single isomer, unassigned) [Example 249], the pIC50 against FL hMALT1 enzyme is 7.30; in assay [1] (Homo sapiens, Jurkat, 48 h), 6.46.
For `CN(C(=O)C1CCCNC1)[C@@H](c1ccc(NC2Cc3ccccc3C2(C)C)cn1)C(F)(F)F` (single isomer, unassigned) [Example 125], the pIC50 on FL hMALT1 enzyme was 7.21; in assay [1] (48 hours), 6.48.
In the case of `CN(C(=O)C1CCC(=O)NC1)[C@@H](c1ccc(NC2Cc3ccccc3C2(C)C)cn1)C(F)(F)F` (single isomer, unassigned) [Example 106], the negative logarithm of the IC50 (pIC50) on FL hMALT1 enzyme was 6.89; in assay [1] (48 hours), 6.27.
Take `CN(C(=O)C1CCS(=O)(=O)C1)[C@@H](c1ccc(NC2Cc3ccc(Cl)c(Cl)c3C2)cn1)C(F)(F)F` (single isomer, unassigned) [Example 360]: the negative-log IC50 (pIC50) against FL hMALT1 enzyme was 7.52; in assay [1] (48 hours), 6.96.
For `CN(C(=O)C1CCNC(=O)C1)[C@@H](c1ccc(NC2Cc3ccccc3C2(C)C)cn1)C(F)(F)F` (single isomer, unassigned) [Example 117], the pIC50 against FL hMALT1 enzyme is 6.62; in assay [1] (48 hours) it was 5.69.
For `CCN(C(=O)C1CCS(=O)(=O)CC1)[C@@H](c1ccc(NC2Cc3ccccc3C2(C)C)cn1)C(F)(F)F` (single isomer, unassigned) [Example 188], in that order: 7.33 and 6.19.
With `CN(C(=O)[C@H]1C[C@H](N(C)C)C1)[C@@H](c1ccc(NC2Cc3ccccc3C2(C)C)nc1)C(F)(F)F` (single isomer, unassigned) [Example 114], the pIC50 is 6.72 at FL hMALT1 enzyme and 5.99 in assay [1] (Homo sapiens, Jurkat, 48 h).
The matching figures for `CN1CCC(C(=O)N(C)[C@@H](c2ccc(N[C@H]3Cc4ccccc4C3(C)C)cn2)C(F)(F)F)CC1=O` (single isomer, unassigned) [Example 250]: 7.39 and 6.52.
As to `CN(C(=O)C1CCS(=O)(=O)C1)[C@@H](c1ccc(NC2Cc3ccc(Cl)c(Cl)c3C2)cn1)C(F)(F)F` (single isomer, unassigned) [Example 358], the pIC50 against FL hMALT1 enzyme is 7.26; in assay [1] (48 hours), 6.60.
Consider `CN(C(=O)C1CN(S(C)(=O)=O)C1)[C@@H](c1ccc(NC2Cc3ccccc3C2(C)C)cn1)C(F)(F)F` (single isomer, unassigned) [Example 209], for which the pIC50 on FL hMALT1 enzyme was 7.28; in assay [1] (Homo sapiens, Jurkat, 48 h), 6.42.
With `CN(C(=O)C1CCS(=O)(=O)CC1)[C@@H](c1ccc(NC2Cc3ccc(Cl)c(C4CC4)c3C2)cn1)C(F)(F)F` (single isomer, unassigned) [Example 306], the pIC50 against FL hMALT1 enzyme is 8.05; in assay [1] (Homo sapiens, Jurkat, 48 h), 6.70.
Consider `CN1CCC(C(=O)N(C)[C@@H](c2ccc(NC3Cc4ccccc4C3(C)C)cn2)C(F)(F)F)CC1` (single isomer, unassigned) [Example 133], for which the pIC50 against FL hMALT1 enzyme is 6.82; in assay [1] (48 hours) it was 6.22.
For the compound `CN(C(=O)C1CCN(S(C)(=O)=O)CC1)[C@@H](c1ccc(NC2Cc3ccc(Cl)c(Cl)c3C2)cn1)C(F)(F)F` (single isomer, unassigned) [Example 325], the pIC50 at FL hMALT1 enzyme is 8.05; in assay [1] (Homo sapiens, Jurkat, 48 h), 7.46.
For `CN(C(=O)[C@H]1C[C@@]2(COC(=O)N2)C1)[C@@H](c1ccc(NC2Cc3ccccc3C2(C)C)cn1)C(F)(F)F` (single isomer, unassigned) [Example 208], in that order: 7.57 and 6.60.
For the compound `COCCN1CCC12CC(C(=O)N(C)[C@@H](c1ccc(NC3Cc4ccccc4C3(C)C)cn1)C(F)(F)F)C2` (single isomer, unassigned) [Example 243], the pIC50 on FL hMALT1 enzyme was 7.07; in assay [1] (Homo sapiens, Jurkat, 48 h), 6.19.
In the case of `CN1CC(C(=O)N(C)[C@@H](c2ccc(N[C@H]3Cc4ccccc4C3(C)C)cn2)C(F)(F)F)CCC1=O` (single isomer, unassigned) [Example 253], the negative logarithm of the IC50 (pIC50) against FL hMALT1 enzyme was 7.18; in assay [1] (48 hours), 6.38.
For `CNC(=O)N1CC(C(=O)N(C)[C@@H](c2ccc(NC3Cc4ccccc4C3(C)C)cn2)C(F)(F)F)C1` (single isomer, unassigned) [Example 228], the negative logarithm of the IC50 (pIC50) is 7.24 against FL hMALT1 enzyme and 6.00 in assay [1] (48 hours).
For the compound `CN(C(=O)C1CCS(=O)(=O)CC1)[C@@H](c1ccc(N[C@H]2Cc3ccc(Cl)cc3C2)cn1)C(F)(F)F` (single isomer, unassigned) [Example 199], the pIC50 is 7.14 on FL hMALT1 enzyme and 6.54 in assay [1] (Homo sapiens, Jurkat, 48 h).
With `CN(C(=O)C1CC2(CCC(=O)N2)C1)[C@@H](c1ccc(NC2Cc3ccccc3C2(C)C)cn1)C(F)(F)F` (single isomer, unassigned) [Example 232], the negative logarithm of the IC50 (pIC50) at FL hMALT1 enzyme is 7.52; in assay [1] (48 hours) it was 6.74.
Take `CN(C(=O)C1CCS(=O)(=O)CC1)[C@@H](c1ccc(NC2Cc3ccc(Cl)c(Cl)c3C2)cn1)C(F)(F)F` (single isomer, unassigned) [Example 279]: the pIC50 on FL hMALT1 enzyme is 7.82; in assay [1] (Homo sapiens, Jurkat, 48 h) it was 7.02.
As for `CN(C(=O)C1CCS(=O)(=O)CC1)[C@@H](c1ccc(NC2Cc3cc(Cl)cc(F)c3C2)cn1)C(F)(F)F` (single isomer, unassigned) [Example 270], the pIC50 at FL hMALT1 enzyme is 7.09; in assay [1] (Homo sapiens, Jurkat, 48 h) it was 6.57.
For `CN1C(=O)CCC1C(=O)N(C)[C@@H](c1ccc(N[C@H]2Cc3ccccc3C2(C)C)cn1)C(F)(F)F` (single isomer, unassigned) [Example 225], the pIC50 was 7.20 on FL hMALT1 enzyme and 6.28 in assay [1] (48 hours).

For the origin of these results see patent publication US20260184687A1, “DIHYDROINDENE DERIVATIVES AS MALT1 INHIBITORS” (C4X Discovery Limited, priority 2022, published 2026).
